Here are results for twelve compounds from patent publication US7196110B2, “N-substituted tricyclic 3-aminopyrazoles as inhibitors for the treatment of cell proliferative disorders” (Janssen Phamaceutica N.V., priority 2002, dated 2007).

Structures are written as SMILES. Like-named read-outs stand apart in the source and are kept apart here.

The target of one assay is c-Abl kinase (Abelson murine leukemia virus, UniProt P00521). Briefly: Inhibition of c-Abl kinase activity (cell-free, Abl peptide substrate, 33P Flashplate). Conditions: IC50 for the c-Abl kinase activity. It counts as biochemical.
The test system of the next assay is H460 (lung). The assay is described as follows: Anti-cell proliferation in tumor cells (14C-thymidine incorporation), H460. It is filed as cell-based. How it is done:
(§1) The effect of compounds of the invention on cell proliferation in various tumor cells was tested based on incorporation of ^14C-thymidine into DNA of cells.
(§2) Similar to those described above in 3a, except that different cells, cell growth medium, and growth supplements were used. Human tumor cell lines derived from various human tissue origins (LoVo from colon, H460 from lung, T47D from breast, PC3 from prostate, A375 from melanoma, AsPC1 from pancreas) were obtained from the American Type Culture Collection (ATCC) and cultured under specified conditions required for each cell type, as provided by ATCC. Complete medium was obtained from Cellgro: Iscove's medium with 10% Fetal Bovine Serium (FBS) (Mediatech, Inc., Herndon, Va. 20171, Cat. No. 10-016-CV).
(§3) Tumor cells were seeded at approx. 3000–8000 cells per well in a volume of 100 μl of complete medium. Cells were grown for 24 hours in complete medium, and 1 μl of test compound was serially diluted in 100% DMSO and added to each well. For maximum growth control wells, only 1 μl of 100% DMSO was added. After 24 hours incubation, 20 μl of ^14C-thymidine master mix was added to each well and the ^14C-thymidine master mix was pepared according to the following regimen:
(§4) Cells were incubated for an additional 24 hours at 37° C. in medium containing test compound and ^14C-thymidine. Then, the reaction mixture was discarded and the plate was washed 2 times each with 200 μl PBS. Subsequently, each well on the plate was filled with 200 μl of PBS. The top of the plate was sealed with transparent plate sealer and white plate backing sealers were applied to the bottom of plates. The retained ^14C inside each well was measured using a Packard TopCount.
(§5) In order to test the potency of inhibition of the present compound, IC50 of an individual compound on the inhibition of tumor cell line proliferation was measured using the above procedure. As used herein, said IC50 refers to the concentration of the test compound at which the amount of tumor cell proliferation is reduced by one-half as compared to the maximum growth control wells without the compound.
(In general: Uptake of a labelled nucleoside into DNA is a usual measure of proliferation.)

In another assay the test system is LoVo (colon). Briefly: Anti-cell proliferation in tumor cells (14C-thymidine incorporation), LoVo. It is filed as cell-based. The conditions noted are these: Homo sapiens, read-out: IC50 on cell proliferation, LoVo. The procedure: as §1, §2, §3, §4, §5
[1] abbreviates: Homo sapiens, NCI-H460; read-out: IC50 on cell proliferation, H460.

Sequence of c-Abl kinase (P00521 115-385): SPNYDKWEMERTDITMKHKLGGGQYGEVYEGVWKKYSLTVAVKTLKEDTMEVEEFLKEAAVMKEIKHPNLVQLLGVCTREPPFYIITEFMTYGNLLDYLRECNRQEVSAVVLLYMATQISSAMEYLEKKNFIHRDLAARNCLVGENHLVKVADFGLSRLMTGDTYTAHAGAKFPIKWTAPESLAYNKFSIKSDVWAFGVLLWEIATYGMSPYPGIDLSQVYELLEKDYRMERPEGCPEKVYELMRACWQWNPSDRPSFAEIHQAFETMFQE

As for `COc1cc2c(cc1OC)-c1n[nH]c(Nc3ccccc3F)c1C2` [Compound 12, (6,7-Dimethoxy-2,4-dihydro-indeno[1,2-c]pyrazol-3-yl)-(2-fluoro-phenyl)-amine], the values for the IC50 at c-Abl kinase, in the assay on H460 (lung) (setting [1]) and in the assay with LoVo (colon) were 20 nM, 3 nM and 11 nM, respectively.
Consider `COC(=O)c1cccc(Nc2[nH]nc3c2Cc2cc(OCCCN4CCCC4)c(OC)cc2-3)c1` [Compound 157, 3-[7-Methoxy-6-(3-pyrrolidin-1-yl-propoxy)-2,4-dihydro-indeno[1,2-c]pyrazol-3-ylamino]-benzoic acid methyl ester], for which the IC50 amounted to 371 nM at c-Abl kinase, 3590 nM with H460 (lung) (setting [1]) and 2140 nM in the assay on LoVo (colon).
For `COC(=O)c1cccc(Nc2[nH]nc3c2Cc2cc(OC)c(OC)cc2-3)c1` [Compound 11, 3-(6,7-Dimethoxy-2,4-dihydro-indeno[1,2-c]pyrazol-3-ylamino)-benzoic acid methyl ester], the figures for the IC50 on c-Abl kinase, in the assay on H460 (lung) (setting [1]) and with LoVo (colon) were 118 nM, 33 nM and 2 nM, respectively.
The like results for `COc1cc2c(cc1OC)-c1n[nH]c(NCc3cc(Cl)ccc3Cl)c1C2` [Compound 330, (2,5-Dichloro-benzyl)-(6,7-dimethoxy-2,4-dihydro-indeno[1,2-c]pyrazol-3-yl)-amine] were, in that order, 91 nM, 1200 nM and 3700 nM.
Take `COc1cc2c(cc1OC)-c1n[nH]c(Nc3cccc(F)c3)c1C2` [Compound 14, (3-Fluoro-phenyl)-(6,7-dimethoxy-2,4-dihydro-indeno[1,2-c]pyrazol-3-yl)-amine]: the IC50 amounted to 10 nM with H460 (lung) (Homo sapiens, NCI-H460, read-out: IC50 on cell proliferation, H460) and 11 nM with LoVo (colon).
In the case of `COc1cccc(Nc2[nH]nc3c2Cc2cc4c(cc2-3)OCO4)c1` [Compound 97, (2,9-Dihydro-5,7-dioxa-2,3-diaza-cyclopenta[a]-s-indacen-1-yl)-(3-methoxy-phenyl)-amine], the IC50 on c-Abl kinase is 227 nM; in the assay on H460 (lung) (setting [1]), 424 nM; in the assay on LoVo (colon), 225 nM.
For `CN1CCN(c2ccc3c(c2)Cc2c-3n[nH]c2Nc2cccc(Br)c2)CC1` [Compound 122, (3-Bromo-phenyl)-[6-(4-methyl-piperazin-1-yl)-2,4-dihydro-indeno[1,2-c]pyrazol-3-yl]-amine], the IC50 is 1260 nM at c-Abl kinase, 14300 nM with H460 (lung) (setting [1]) and 3840 nM in the assay on LoVo (colon).
As for `COc1cc2c(cc1OC)-c1c(c(Nc3cccc(F)c3)nn1C(=O)CO)C2` [Compound 432, 1-[3-(3-Fluoro-phenylamino)-6,7-dimethoxy-4H-indeno[1,2-c]pyrazol-1-yl]-2-hydroxy-ethanone], the IC50 on c-Abl kinase was 96 nM; in the assay with LoVo (colon), 35 nM.
With `Cc1ccc2c(c1)-c1n[nH]c(Nc3ccccc3)c1C2` [Compound 22, (7-Methyl-2,4-dihydro-indeno[1,2-c]pyrazol-3-yl)-phenyl-amine], the IC50 amounted to 19 nM on c-Abl kinase, 9270 nM in the assay with H460 (lung) (setting [1]) and 13400 nM with LoVo (colon).
As to `COc1cc2c(cc1OC)-c1n[nH]c(Nc3cccnc3)c1C2` [Compound 30, (6,7-Dimethoxy-2,4-dihydro-indeno[1,2-c]pyrazol-3-yl)-pyridin-3-yl-amine], the IC50 was found to be 491 nM on c-Abl kinase, 290 nM in the assay with H460 (lung) (setting [1]) and 423 nM in the assay with LoVo (colon).
Regarding `COc1ccc2c(c1)-c1n[nH]c(Nc3ccccc3)c1C2` [Compound 39, (7-Methoxy-2,4-dihydro-indeno[1,2-c]pyrazol-3-yl)-phenyl-amine], on c-Abl kinase, the IC50 was determined as 13 nM.
As to `COc1cc2c(cc1OC)-c1n[nH]c(NCc3ccccc3)c1C2` [Compound 63, Benzyl-(6,7-dimethoxy-2,4-dihydro-indeno[1,2-c]pyrazol-3-yl)-amine], the IC50 at c-Abl kinase is 419 nM; in the assay with H460 (lung) (setting [1]) it was 3670 nM; with LoVo (colon) it was 2400 nM.
